Test results taken from patent US20240335486A1, “COMPOSITION FOR REARING ORGANISM BELONGING TO ORDER DECAPODA AND COMPOSITION FOR PREVENTING OR TREATING INFECTION IN DECAPODS” (SUMITOMO CHEMICAL COMPANY, LIMITED, priority 2021, published 2024).

What was measured:
Test in all cases: Antibacterial activity of lactic acid cell culture products (plate culture, filter paper disk)
Type in all cases: cell-based
[1] = test system: V. nigripulchritudo TUMSAT-OK1 strain; details: Vibrio nigripulchritudo on Marine agar; disk with 20 μL culture filtrate (ampicillin 100 μg/mL); 25° C., 24 hours; read-out: diameter of the growth-inhibitory zone
Description: (§1) Examination was performed on whether the cell culture products of NITE BP-03199, NITE BP-03200, and NITE BP-03201 have antibacterial activity to Vibrio bacteria. The V. parahaemolyticus TUMSAT-D6 strain (AHPND strain), V. nigripulchritudo TUMSAT-OK1 strain, and V. pengeicida TUMSAT-OG1 strain were used as Vibrio bacteria.
(§2) With reference to FIG. 4, the experimental method will be described. With a bacteria spreader, 100 μL of a bacterial solution 11 of a Vibrio bacterium (approximately 10^8 cfu/mL) was smeared on agar medium 12. The agar medium used was Marine agar (Difco). A filter paper disk 15 was impregnated with 20 μL of a lactic acid bacterial culture filtrate 13, and placed on the agar medium with a Vibrio bacterium smeared thereon. The lactic acid bacterial culture filtrate (cell culture product) was a solution obtained through a process that any lactic acid bacterium of NITE BP-03199, NITE BP-03200, and NITE BP-03201 was cultured with MRS Broth at a temperature of 30° C. and the culture supernatant was filtered through a filter having a pore size of 0.22 μm. The turbidity of each lactic acid bacterial culture solution at a wavelength of 600 nm was approximately 10 OD. The agar medium with filter paper disk 15 placed thereon was subjected to culture at 25° C. for 24 hours, and the diameter (mm) of a growth-inhibitory zone 14 was measured. Each numerical value shown in Table 7 indicates the diameter (mm) of the growth-inhibitory zone. A filter paper disk was impregnated with medium for lactic acid bacteria (MRS Broth) as a negative control, and another one was impregnated with the antibiotic ampicillin (100 μg/mL) as a positive control.

[2] = test system: V. parahaemolyticus TUMSAT-D6 strain (AHPND strain); details: Vibrio parahaemolyticus on Marine agar; disk with 20 μL culture filtrate (ampicillin 100 μg/mL); 25° C., 24 hours; read-out: diameter of the growth-inhibitory zone
Description: as §1, §2

[3] = test system: V. pengeicida TUMSAT-OG1 strain; details: Vibrio penaeicida on Marine agar; disk with 20 μL culture filtrate (ampicillin 100 μg/mL); 25° C., 24 hours; read-out: diameter of the growth-inhibitory zone
Description: as §1, §2

## CC1(C)S[C@@H]2[C@H](NC(=O)[C@H](N)c3ccccc3)C(=O)N2[C@H]1C(=O)O [Ampicillin, ampicillin]
[1]
  zone of inhibition at 100 µg/mL: 29 mm
[2]
  zone of inhibition at 100 µg/mL: 28 mm
[3]
  zone of inhibition at 100 µg/mL: 37 mm
